Measurements reported in ChEMBL document CHEMBL1148209, “Isolation and structure determination of cryptophycins 38, 326, and 327 from the terrestrial cyanobacterium Nostoc sp. GSV 224” (J Nat Prod, 2004).

Tested on: KB
Assay: Cytotoxicity against human KB cells
Assay type: functional, cell-based

`COc1ccc(C[C@H]2NC(=O)/C=C/C[C@@H]([C@H](C)[C@@H]3O[C@H]3c3ccccc3)OC(=O)[C@H](CC(C)C)OC(=O)[C@H](C)CNC2=O)cc1Cl` [CRYPTOPHYCIN 38] and `COc1ccc(C[C@H]2NC(=O)/C=C/C[C@@H]([C@H](C)[C@H]3O[C@H]3c3ccccc3)OC(=O)[C@H](CC(C)C)OC(=O)[C@H](C)CNC2=O)cc1Cl` [CRYPTOPHYCIN 39] are within 1.5-fold of each other in IC50: 54.7 nM for the first, 72 nM for the second.

Going from `COc1ccc(C[C@H]2NC(=O)/C=C/C[C@@H]([C@H](C)[C@@H]3O[C@@H]3c3ccccc3)OC(=O)[C@H](CC(C)C)OC(=O)[C@H](C)CNC2=O)cc1Cl` [CRYPTOPHYCIN 77] to `COc1ccc(C[C@H]2NC(=O)/C=C\C[C@@H]([C@H](C)[C@H]3O[C@@H]3c3ccccc3)OC(=O)[C@H](CC(C)C)OC(=O)[C@H](C)CNC2=O)cc1Cl` [CRYPTOPHYCIN 327], the IC50 rises from 654 nM to 14100 nM (22-fold).

For `COc1c(Cl)cc(C[C@H]2NC(=O)/C=C/C[C@@H]([C@H](C)[C@H]3O[C@@H]3c3ccccc3)OC(=O)[C@H](CC(C)C)OC(=O)CCNC2=O)cc1Cl` [CRYPTOPHYCIN 326], the IC50 was 1160 nM.
